{"source": "ChEMBL document CHEMBL4680289", "about": "“10-(4-Phenylpiperazine-1-carbonyl)acridin-9(10H)-ones and related compounds: Synthesis, antiproliferative activity and inhibition of tubulin polymerization” (Bioorg Med Chem Lett, 2021)", "key": {"K562 [1]": {"test_system": "K562", "test": "Antiproliferative activity against human K562 cells assessed as cell growth inhibition measured after 48 hrs by MTT assay", "assay_type": "functional, cell-based", "details": "K562, 48 h"}, "[2]": {"test": "Inhibition of porcine brain tubulin polymerization assessed as reduction in tubulin assembly at 37 degreeC measured after 40 mins in presence of GTP by turbidimetric analysis", "parameters": "species or system Sus scrofa"}, "K562 [3]": {"test_system": "K562", "test": "Cell cycle arrest in human K562 cells assessed as increase in cell accumulation at G2/M phase measured after 18 hrs by propidium iodide/RNase FACSCalibur staining based flow cytometry", "assay_type": "functional", "details": "dose 0.003-1 µmol/L"}, "K562 [4]": {"test_system": "K562", "test": "Induction of apoptosis in human K562 cells assessed as late apoptotic cells at 1 micromol/L measured after 48 hrs by Annexin V-FITC/7-AAD staining based flow cytometric analysis (reference value: 2.49 %)", "assay_type": "functional", "details": "dose 1 µmol/L, at 1 µM"}, "K562 [5]": {"test_system": "K562", "test": "Induction of apoptosis in human K562 cells assessed as necrotic cells at 1 micromol/L measured after 48 hrs by Annexin V-FITC/7-AAD staining based flow cytometric analysis (reference value: 0.46 %)", "assay_type": "functional", "details": "dose 1 µmol/L, at 1 µM"}, "K562 [6]": {"test_system": "K562", "test": "Induction of apoptosis in human K562 cells assessed as early apoptotic cells at 0.3 micromol/L measured after 48 hrs by Annexin V-FITC/7-AAD staining based flow cytometric analysis (reference value: 4.2 %)", "assay_type": "functional", "details": "dose 0.3 µmol/L, at 0.3 µM"}, "K562 [7]": {"test_system": "K562", "test": "Induction of apoptosis in human K562 cells assessed as early apoptotic cells at 0.1 micromol/L measured after 48 hrs by Annexin V-FITC/7-AAD staining based flow cytometric analysis (reference value: 4.2 %)", "assay_type": "functional", "details": "dose 0.1 µmol/L, at 0.1 µM"}, "K562 [8]": {"test_system": "K562", "test": "Induction of apoptosis in human K562 cells assessed as necrotic cells at 0.1 micromol/L measured after 48 hrs by Annexin V-FITC/7-AAD staining based flow cytometric analysis (reference value: 0.46 %)", "assay_type": "functional", "details": "dose 0.1 µmol/L, at 0.1 µM"}, "K562 [9]": {"test_system": "K562", "test": "Induction of apoptosis in human K562 cells assessed as necrotic cells at 0.03 micromol/L measured after 48 hrs by Annexin V-FITC/7-AAD staining based flow cytometric analysis (reference value: 0.46 %)", "assay_type": "functional", "details": "dose 0.03 µmol/L, at 0.03 µM"}, "K562 [10]": {"test_system": "K562", "test": "Induction of apoptosis in human K562 cells assessed as viable cells at 0.1 uM measured after 6 hrs by Annexin V-FITC/7-AAD staining based flow cytometric analysis relative to control", "assay_type": "functional", "details": "read-out: Activity"}, "K562 [11]": {"test_system": "K562", "test": "Induction of apoptosis in human K562 cells assessed as necrotic cells at 0.1 uM measured after 6 hrs by Annexin V-FITC/7-AAD staining based flow cytometric analysis relative to control", "assay_type": "functional"}, "K562 [12]": {"test_system": "K562", "test": "Induction of apoptosis in human K562 cells assessed as viable cells at 0.1 uM measured after 24 hrs by Annexin V-FITC/7-AAD staining based flow cytometric analysis relative to control", "assay_type": "functional", "details": "read-out: Activity"}, "K562 [13]": {"test_system": "K562", "test": "Induction of apoptosis in human K562 cells assessed as late apoptotic cells at 0.1 uM measured after 24 hrs by Annexin V-FITC/7-AAD staining based flow cytometric analysis relative to control", "assay_type": "functional"}, "K562 [14]": {"test_system": "K562", "test": "Induction of apoptosis in human K562 cells assessed as early apoptotic cells at 0.1 uM measured after 72 hrs by Annexin V-FITC/7-AAD staining based flow cytometric analysis relative to control", "assay_type": "functional"}}}
{"smiles": "COc1cc(OC)cc(N2CCN(C(=O)n3c4ccccc4c(=O)c4ccccc43)CC2)c1", "values": [{"measurement": "IC50", "setting": "K562 [1]", "result": 0.013, "unit": "µM"}, {"measurement": "IC50", "setting": "[2]", "result": 0.35, "unit": "µM"}, {"measurement": "Activity", "setting": "K562 [3]", "result": "Dose-dependent effect"}, {"measurement": "Activity", "setting": "K562 [4]", "result": 31.22, "unit": "%"}, {"measurement": "Activity", "setting": "K562 [5]", "result": 0.35, "unit": "%"}, {"measurement": "Activity", "setting": "K562 [6]", "result": 24.76, "unit": "%"}, {"measurement": "Activity", "setting": "K562 [7]", "result": 26.08, "unit": "%"}, {"measurement": "Activity", "setting": "K562 [8]", "result": 0.33, "unit": "%"}, {"measurement": "Activity", "setting": "K562 [9]", "result": 0.53, "unit": "%"}, {"measurement": "viability at 0.1 µM", "setting": "K562 [10]", "result": 91.6, "unit": "%"}, {"measurement": "Activity", "setting": "K562 [11]", "result": 0.24, "unit": "%"}, {"measurement": "viability at 0.1 µM", "setting": "K562 [12]", "result": 66.3, "unit": "%"}, {"measurement": "Activity", "setting": "K562 [13]", "result": 7.02, "unit": "%"}, {"measurement": "Activity", "setting": "K562 [14]", "result": 11.57, "unit": "%"}]}
